From patent US20240342138A1, “MICROTUBULE TARGETING AGENTS” (BPGbio, Inc., priority 2023, published 2024)

Tests used:
COLO205 tumors = experiment: Colorectal cancer xenograft model; type: in vivo, nude mice
Protocol: FIG. 11A-11E show the efficacy of Compound 1 in a colorectal cancer xenograft model (COLO205). A) In vitro potency of Compound 1 in COLO205 cells as evaluated by ATPlite 1Step™ Perkin Elmer (performed by NTRC Oncolines). B) COLO205 cells were implanted subcutaneously in nude mice and tumors were allowed to grow to a volume of 210 mm3 followed by randomization of animals into three (3) groups (vehicle control, 75 mg/kg, 150 mg/kg Compound 1) with 12 animals per group. A Compound 1 solid dispersion was prepared prior to each dosing and administered by oral gavage two times a day (BID). Mean tumor volume of each group over time and the growth of tumor in each individual animal was graphed. For each individual animal of […] group TGI (%) was calculated based on the tumor growth inhibition of individual tumor at each given day of the study compared to the average of the group for that given day of the study. P-values were calculated using two-tailed distribution and two-sample equal variance (homoscedastic) for each group treated with Compound 1 for each given day of the study in reference to vehicle control. NS p>0.05; *p≤0.05; **p≤0.01; ***p p≤0.001; **** p≤0.0001. C) Plasma and tumor tissues from vehicle (n=11), 75 mg/kg (n=12), and 150 mg/kg (n=11) groups were harvested at the end of the study. The concentration of Compound 1 in the plasma or tumor tissue was plotted as a column plot (Average t SEM) or Scatter Plot with Median. D) Tumor tissues from vehicle (n=11), 75 mg/kg (n=12) and 150 mg/kg (n=11) groups were harvested at the end of the study when each animal was sacrificed. The level of two biomarkers, pHH3 and CCNB1 in each tissue was measured and graphed as the Min-to-Max plot and scatter plot of the level of each biomarker. The line in the scatter plot indicates the group mean. E) Body weight of each individual animal was measured on each day of the study and graphed using Graphpad Prism.
Anti-tumor efficacy of Compound 1 was evaluated against three (3) different preclinical oncology mice models of colorectal cancer, prostate cancer, and lung adenocarcinoma (see Table 5 below). For this purpose, an oral formulation of Compound 1 was used.
COLO205 is a colorectal adenocarcinoma (Dukes' Type D) cell line of epithelial origin isolated from human colon. COLO205 is a model that is well validated in the cancer field for in vivo efficacy evaluation of oncology therapeutics. Nude mice were implanted subcutaneously with COLO205 cells and tumors were grown to an average tumor volume of 113 mm^3 followed by randomization into three (3) groups consisting of vehicle control, 75 mg/kg and 150 mg/kg Compound 1 (12 animals per group). A Compound 1 solid dispersion was administered by oral gavage two times a day (BID). Originally, the study was planned for 28 days of dosing; however, several animals left the study after 17 days of dosing due to tumor size reaching the limit of 2000 mm^3. Therefore, only the data for the first 17 days of dosing were used for the analysis. Additionally, one animal from vehicle group and one animal from 150 mg/kg group left the study prior to day 17 and were therefore removed from the analysis. The percentage of tumor growth inhibition (TGI %) was calculated for each individual animal.

tubulin = target: T1, tubulin (Sus scrofa, UniProt P02550+P02554); experiment: In vitro tubulin polymerization assay (OD based, absorbance 340 nm); type: biochemical, Porcine; settings: 10 μM and 20 nM; FIG. 1; N=3
T1 construct: purchased Cytoskeleton Inc. BK006P
T1 sequence (P02550 whole entry): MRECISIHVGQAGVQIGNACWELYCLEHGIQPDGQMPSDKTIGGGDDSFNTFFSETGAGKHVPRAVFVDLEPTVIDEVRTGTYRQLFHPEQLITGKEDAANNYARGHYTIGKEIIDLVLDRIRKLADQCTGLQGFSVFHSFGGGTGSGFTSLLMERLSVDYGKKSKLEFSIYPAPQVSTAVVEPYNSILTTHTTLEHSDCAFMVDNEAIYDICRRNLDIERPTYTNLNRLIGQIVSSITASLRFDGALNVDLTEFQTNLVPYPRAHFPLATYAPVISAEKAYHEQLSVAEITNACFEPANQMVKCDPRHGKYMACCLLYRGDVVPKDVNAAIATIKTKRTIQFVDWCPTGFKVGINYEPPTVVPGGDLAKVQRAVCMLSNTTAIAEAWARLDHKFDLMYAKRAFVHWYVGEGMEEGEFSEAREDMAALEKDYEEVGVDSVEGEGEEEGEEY
T1 sequence (P02554 whole entry): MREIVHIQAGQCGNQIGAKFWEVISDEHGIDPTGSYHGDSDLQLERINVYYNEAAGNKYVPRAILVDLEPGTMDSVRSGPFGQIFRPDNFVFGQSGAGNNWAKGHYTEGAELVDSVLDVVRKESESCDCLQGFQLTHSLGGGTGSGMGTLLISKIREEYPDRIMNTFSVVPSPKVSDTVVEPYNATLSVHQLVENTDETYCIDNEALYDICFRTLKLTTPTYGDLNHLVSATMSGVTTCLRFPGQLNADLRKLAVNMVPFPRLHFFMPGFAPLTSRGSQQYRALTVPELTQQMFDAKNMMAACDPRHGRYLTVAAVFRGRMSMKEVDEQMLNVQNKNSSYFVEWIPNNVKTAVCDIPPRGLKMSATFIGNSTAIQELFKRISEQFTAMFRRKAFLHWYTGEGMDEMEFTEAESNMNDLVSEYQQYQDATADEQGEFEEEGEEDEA
Protocol: The protocol followed for tubulin polymerization is according to the manufacturer's protocol. The following components were diluted as follows: • A vial of lyophilized GTP was diluted in 100 μl of sterile water and made into 10 μl aliquots and stored at −80° C. • Tubulin was diluted to 10 mg/ml in buffers+GTP as recommended, flash frozen in liquid nitrogen and stored at −80° C. • Paclitaxel was diluted to 2 mM in DMSO
The half area 96-well plate provided by kit manufacturer was allowed to warm up to 37° C. for 30 mins in the Molecular Devices M5 plate reader. The Compound 1 and nocodazole were diluted in DMSO to a concentration of 2 mM, followed by dilution of these working stocks in the General Tubulin Buffer (GTB-provided in the kit) to a 10× the final well concentration and final well volume of 10 μl. Same was done with the 2 mM Paclitaxel stock. Once the plate was warmed up, the compounds were added in duplicates to the wells. […] The plate was placed at 37° C. in the plate reader for 3 minutes. […] The experimental setup was as follows: • Absorbance read: 340 nm • Temperature: 37° C. • Shake: 5 s at medium speed prior to first read. • Read: The absorbance was read every 1 min for 90 minutes (total 91 reads).
The values were normalized to the first read by designating the first read as ‘0’ subtracting the value of the first read from the following reads. […]

[1] = tested on: Triple Negative Breast Cancer patient-derived organoids CTG-1520, CTG-0896, CTG-1017; experiment: Viability of PDO models of taxane resistance (CellTiter-Glo, 5 days); type: cell-based, human
Protocol: FIGS. 9A and 9B show potency of Compound 1 in patient-derived organoid (PDO) models of taxane resistance. Patient-derived organoids were treated with Compound 1, paclitaxel or controls (0.1% DMSO, positive control—10% DMSO) for 5 days. Viability was assessed using the CellTiter-Glo® assay. IC50 and maximal (max) inhibition values were extrapolated from the viability curves. A) Model overview and dose response curves to Compound 1 and paclitaxel. B) Summary of CellTiter-Glo results in all three models tested. Compiled data of N=4 replicates.
CTG-1520 and CTG-0896 were derived from Triple Negative Breast Cancer (TNBC) patients post-treatment, and progression on a taxane-based therapy and the models' resistance to paclitaxel was confirmed by testing in vivo PDX (Patient-derived xenograft) tumor growth. […] Compound 1 and paclitaxel were tested head-to-head in each model in a dose-curve setting. 10% DMSO was used as the positive control for induction of 100% cell cytotoxicity.

COc1ccccc1-c1nc(CNC(=O)c2ccccc2OC(F)F)n[nH]1 [Compound 1, 2-(difluoromethoxy)-N-[[5-(2-methoxyphenyl)-1H-1,2,4-triazol-3-yl]methyl]benzamide]
TGI (%) (COLO205 tumors; 75 mg/kg BID oral, day 17): 20.13%
Maximum TGI (%), end of the study (COLO205 tumors; 150 mg/kg BID oral, day 17): 35.38%
Body weight (COLO205 tumors; 150 mg/kg group, FIG. 11E): no significant body weight change by the end of the study
Level of Compound 1 in plasma and tumor tissue (COLO205 tumors; 75 vs 150 mg/kg, end of study, FIG. 11C): dose-dependent elevation
cyclin B1 and phospho Histone H3 (pHH3) in tumor tissue (COLO205 tumors; markers of M phase arrest, FIG. 11D): increase
Microtubule polymerization (absorbance at 340 nm, Vmax) (tubulin): inhibits microtubule polymerization
Potency in PDO models ([1]; CTG-1520, CTG-0896, CTG-1017, FIG. 9): potent in all three (3) PDO models tested
Retention of potency in matched PDO models ([1]; same patient before (CTG-1017) and after (CTG-1520) taxane-based chemotherapy): retained potency
